In ChEMBL document CHEMBL1201862, “PubChem BioAssay data set” (2004):
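All cell lines were grown in 96-well plates and treated with compound for 48 hours. GI50 = concentration required for 50% inhibition of growth.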 Calls of active or inactive are those of the source. No stated cut-off is given here; in the data, active = GI50 up to about 1.1 µM and inactive = higher.

What was measured:
Assay in all cases: NCI-60 cell line screen, 48 h
BT-549 = test system: BT-549
SK-MEL-5 = test system: SK-MEL-5
NCI-H23 = test system: NCI-H23
NCI-H460 = test system: NCI-H460
HOP-92 = test system: HOP-92
OVCAR-5 = test system: OVCAR-5
786-0 = test system: 786-0
IGROV-1 = test system: IGROV-1
MCF7 = test system: MCF7
SF-268 = test system: SF-268
SNB-75 = test system: SNB-75
NCI-H522 = test system: NCI-H522
CCRF-CEM = test system: CCRF-CEM
RPMI-8226 = test system: RPMI-8226
SW-620 = test system: SW-620
HCT-116 = test system: HCT-116
EKVX = test system: EKVX
UACC-257 = test system: UACC-257
NCI/ADR-RES = test system: NCI/ADR-RES
SF-295 = test system: SF-295

For `COCOc1ccc(C(=O)C(C)c2ccc(OCOC)cc2OCOC)c(O)c1` (stereo not given), the GI50 (BT-549) was 60.5 µM (inactive), the GI50 (SK-MEL-5) was 37 µM (inactive) and the GI50 (NCI-H23) was 60.8 µM (inactive). For the same molecule, the GI50 (NCI-H460) was > 100 µM (inactive), the GI50 (HOP-92) was 48.1 µM (inactive) and the GI50 (OVCAR-5) was > 100 µM (inactive). For the same molecule, the GI50 (786-0) was > 100 µM (inactive), the GI50 (IGROV-1) was > 100 µM (inactive) and the GI50 (MCF7) was 68.2 µM (inactive). The GI50 (SF-268) was > 100 µM (inactive), the GI50 (SNB-75) was 33.5 µM (inactive) and the GI50 (NCI-H522) was 41.5 µM (inactive). For the same molecule, the GI50 (CCRF-CEM) was 83.4 µM (inactive), the GI50 (RPMI-8226) was 71.1 µM (inactive) and the GI50 (SW-620) was > 100 µM (inactive). The GI50 (HCT-116) was > 100 µM (inactive), the GI50 (EKVX) was 83.6 µM (inactive) and the GI50 (UACC-257) was 56.4 µM (inactive).

With `Cc1ccc2c(c1)Nc1cc(C(F)(F)F)ccc1[PH]2=O` (stereo not given) the GI50 (SK-MEL-5) was 15.3 µM (inactive), the GI50 (NCI-H23) was 22.2 µM (inactive) and the GI50 (NCI-H460) was 27.7 µM (inactive). For the same molecule, the GI50 (HOP-92) was 14.2 µM (inactive), the GI50 (NCI/ADR-RES) was 67.1 µM (inactive) and the GI50 (SF-295) was 5.57 µM (inactive). The GI50 (OVCAR-5) was 50.2 µM (inactive), the GI50 (786-0) was 66.4 µM (inactive) and the GI50 (IGROV-1) was 25.9 µM (inactive). The GI50 (MCF7) was 9.59 µM (inactive), the GI50 (SF-268) was 34 µM (inactive) and the GI50 (SNB-75) was 11.8 µM (inactive). For the same molecule, the GI50 (NCI-H522) was 21.7 µM (inactive), the GI50 (CCRF-CEM) was 14.9 µM (inactive) and the GI50 (SW-620) was 23.4 µM (inactive). The GI50 (HCT-116) was 42.2 µM (inactive), the GI50 (EKVX) was 3.78 µM (inactive) and the GI50 (UACC-257) was 28.2 µM (inactive).

In the case of `O=[N+]([O-])c1ccc(N=P(c2ccccc2)(c2ccccc2)c2ccccc2)n2nnnc12`, the GI50 (SK-MEL-5) is reported as 67 µM (inactive), the GI50 (NCI-H23) is reported as > 100 µM (inactive) and the GI50 (NCI-H460) is reported as 44.6 µM (inactive). The GI50 (HOP-92) was 22.2 µM (inactive), the GI50 (SF-295) was 29 µM (inactive) and the GI50 (OVCAR-5) was > 100 µM (inactive). The GI50 (786-0) was 28.1 µM (inactive), the GI50 (IGROV-1) was > 100 µM (inactive) and the GI50 (SF-268) was 36.1 µM (inactive). For the same molecule, the GI50 (SNB-75) was 21.9 µM (inactive), the GI50 (NCI-H522) was 31 µM (inactive) and the GI50 (CCRF-CEM) was 68.9 µM (inactive). For the same molecule, the GI50 (RPMI-8226) was 35.7 µM (inactive), the GI50 (SW-620) was > 100 µM (inactive) and the GI50 (EKVX) was 58.7 µM (inactive). For the same molecule, the GI50 (UACC-257) was 85.9 µM (inactive).

`Cc1cccc(C)c1NC(=O)C(=O)Nn1c(NN)nc2ccccc2c1=O` was tested, and the GI50 (SK-MEL-5) was > 100 µM (inactive), the GI50 (NCI-H23) was > 100 µM (inactive) and the GI50 (NCI-H460) was > 100 µM (inactive). The GI50 (HOP-92) was > 100 µM (inactive), the GI50 (SF-295) was > 100 µM (inactive) and the GI50 (OVCAR-5) was > 100 µM (inactive). The GI50 (786-0) was > 100 µM (inactive), the GI50 (IGROV-1) was > 100 µM (inactive) and the GI50 (SF-268) was > 100 µM (inactive). The GI50 (SNB-75) was > 100 µM (inactive), the GI50 (NCI-H522) was > 100 µM (inactive) and the GI50 (CCRF-CEM) was > 100 µM (inactive). The GI50 (RPMI-8226) was > 100 µM (inactive), the GI50 (SW-620) was > 100 µM (inactive) and the GI50 (HCT-116) was > 100 µM (inactive). The GI50 (EKVX) was > 100 µM (inactive) and the GI50 (UACC-257) was > 100 µM (inactive).

For `Cc1cc2c(c(C)c1O)C(C)(C)CN2C(=O)C(C)(C)C`, the GI50 (SK-MEL-5) was 25.1 µM (inactive), the GI50 (NCI-H23) was 42.5 µM (inactive) and the GI50 (NCI-H460) was > 100 µM (inactive). For the same molecule, the GI50 (HOP-92) was 20 µM (inactive), the GI50 (NCI/ADR-RES) was 16.5 µM (inactive) and the GI50 (SF-295) was > 100 µM (inactive). For the same molecule, the GI50 (OVCAR-5) was > 100 µM (inactive), the GI50 (786-0) was > 100 µM (inactive) and the GI50 (IGROV-1) was > 100 µM (inactive). The GI50 (MCF7) was > 100 µM (inactive), the GI50 (SF-268) was > 100 µM (inactive) and the GI50 (SNB-75) was 28 µM (inactive). The GI50 (NCI-H522) was > 100 µM (inactive), the GI50 (CCRF-CEM) was 77.6 µM (inactive) and the GI50 (RPMI-8226) was > 100 µM (inactive). The GI50 (SW-620) was > 100 µM (inactive), the GI50 (HCT-116) was 84.7 µM (inactive) and the GI50 (EKVX) was > 100 µM (inactive). For the same molecule, the GI50 (UACC-257) was > 100 µM (inactive).

For `Cc1ccccc1-n1c(CCl)nc2ccc(Br)cc2c1=O`, the GI50 (SK-MEL-5) was 8.17 µM (inactive), the GI50 (NCI-H23) was 9.91 µM (inactive) and the GI50 (NCI-H460) was 13.5 µM (inactive). For the same molecule, the GI50 (HOP-92) was 12.8 µM (inactive), the GI50 (SF-295) was 11 µM (inactive) and the GI50 (OVCAR-5) was 24.4 µM (inactive). The GI50 (786-0) was 8.17 µM (inactive), the GI50 (IGROV-1) was 14.3 µM (inactive) and the GI50 (SF-268) was 3.21 µM (inactive). The GI50 (SNB-75) was 12.8 µM (inactive), the GI50 (NCI-H522) was 2.28 µM (inactive) and the GI50 (CCRF-CEM) was 0.278 µM (active). For the same molecule, the GI50 (RPMI-8226) was 8.36 µM (inactive), the GI50 (SW-620) was 3.13 µM (inactive) and the GI50 (HCT-116) was 9.53 µM (inactive). The GI50 (EKVX) was 18.1 µM (inactive) and the GI50 (UACC-257) was 14.8 µM (inactive).

In the case of `CCCCCC#CCOC(=O)C(=[N+]=[N-])P(=O)(c1ccccc1)c1ccccc1`, the GI50 (BT-549) is reported as > 10 µM (inactive), the GI50 (SK-MEL-5) is reported as > 10 µM (inactive) and the GI50 (NCI-H23) is reported as > 10 µM (inactive). The GI50 (NCI-H460) was > 10 µM (inactive), the GI50 (HOP-92) was > 10 µM (inactive) and the GI50 (SF-295) was > 10 µM (inactive). For the same molecule, the GI50 (OVCAR-5) was > 10 µM (inactive), the GI50 (786-0) was > 10 µM (inactive) and the GI50 (IGROV-1) was > 10 µM (inactive). For the same molecule, the GI50 (MCF7) was > 10 µM (inactive), the GI50 (SF-268) was > 10 µM (inactive) and the GI50 (SNB-75) was > 10 µM (inactive). For the same molecule, the GI50 (RPMI-8226) was 9.84 µM (inactive), the GI50 (SW-620) was > 10 µM (inactive) and the GI50 (HCT-116) was 8.26 µM (inactive). The GI50 (EKVX) was > 10 µM (inactive) and the GI50 (UACC-257) was > 10 µM (inactive).

For `Cc1cc(S(=O)(=O)O)ccc1/N=N/c1c(O)ccc2ccccc12`, the GI50 (BT-549) was > 100 µM (inactive), the GI50 (SK-MEL-5) was > 100 µM (inactive) and the GI50 (NCI-H23) was > 100 µM (inactive). For the same molecule, the GI50 (HOP-92) was > 100 µM (inactive), the GI50 (NCI/ADR-RES) was > 100 µM (inactive) and the GI50 (SF-295) was > 100 µM (inactive). For the same molecule, the GI50 (OVCAR-5) was > 100 µM (inactive), the GI50 (786-0) was > 100 µM (inactive) and the GI50 (IGROV-1) was > 100 µM (inactive). The GI50 (SF-268) was > 100 µM (inactive), the GI50 (SNB-75) was > 100 µM (inactive) and the GI50 (NCI-H522) was > 100 µM (inactive). The GI50 (CCRF-CEM) was > 100 µM (inactive), the GI50 (RPMI-8226) was > 100 µM (inactive) and the GI50 (SW-620) was > 100 µM (inactive). For the same molecule, the GI50 (HCT-116) was > 100 µM (inactive), the GI50 (EKVX) was > 100 µM (inactive) and the GI50 (UACC-257) was > 100 µM (inactive).
